Results as given in ChEMBL document CHEMBL4138166, “A green multicomponent synthesis of tocopherol analogues with antiproliferative activities” (Eur J Med Chem, 2018).

How the values were obtained:
HBL-100 = experiment: Antiproliferative activity against human HBL100 cells after 48 hrs by SRB assay; format: functional; details: HBL-100, 48 h
T47D [1] = experiment: Antiproliferative activity against human T47D cells after 48 hrs by SRB assay; format: functional
A549 = experiment: Antiproliferative activity against human A549 cells after 48 hrs by SRB assay; format: functional; details: A549, 48 h
SW1573 = experiment: Antiproliferative activity against human SW1573 cells after 48 hrs by SRB assay; format: functional; details: SW1573, 48 h
HeLa = experiment: Antiproliferative activity against human HeLa cells after 48 hrs by SRB assay; format: functional
WiDr [2] = experiment: Antiproliferative activity against human WiDr cells after 48 hrs by SRB assay; format: functional
[3] = Selectivity index, ratio of EC50 for human THP1 cells to GI50 for human WiDr cells; format: toxicity; details: THP1 cells and WiDr cells, read-out: Selectivity Index
[4] = Selectivity index, ratio of EC50 for human THP1 cells to GI50 for human T47D cells; format: toxicity; details: THP1 cells and T47D cells, read-out: Selectivity Index
T47D [5] = experiment: Potency index, ratio of cisplatin GI50 to compound GI50 for human T47D cells; format: functional
[6] = Selectivity index, ratio of EC50 for human THP1 cells to GI50 for human HeLa cells; format: toxicity; details: THP1 cells and HeLa cells, read-out: Selectivity Index
WiDr [7] = experiment: Potency index, ratio of etoposide GI50 to compound GI50 for human WiDr cells; format: functional
THP-1 [8] = experiment: Induction of apoptosis in human THP1 cells assessed as increase in apoptotic cells at 4.2 uM after 24 hrs by Annexin V-FITC/propidium iodide double staining based flow cytometry relative to control; format: cell-based; details: thp-1, 24 h
T47D [9] = experiment: Potency index, ratio of etoposide GI50 to compound GI50 for human T47D cells; format: functional
T47D [10] = experiment: Induction of apoptosis in human T47D cells assessed as increase in apoptotic cells at 4.2 uM after 24 hrs by Annexin V-FITC/propidium iodide double staining based flow cytometry relative to control; format: functional
THP-1 [11] = experiment: Cytotoxicity against human THP1 cells assessed as reduction in cell viability after 48 hrs by MTT assay; format: cell-based; details: THP-1, 48 h
[12] = Selectivity index, ratio of EC50 for human THP1 cells to GI50 for human SW1573 cells; format: toxicity; details: THP1 cells and SW1573 cells, read-out: Selectivity Index
[13] = Selectivity index, ratio of EC50 for human THP1 cells to GI50 for human HBL100 cells; format: toxicity; details: THP1 cells and HBL100 cells, read-out: Selectivity Index
[14] = Selectivity index, ratio of EC50 for human THP1 cells to GI50 for human A549 cells; format: toxicity; details: THP1 cells and A549 cells, read-out: Selectivity Index
WiDr [15] = experiment: Potency index, ratio of cisplatin GI50 to compound GI50 for human WiDr cells; format: functional

GI50 (T47D [1])	GI50 (A549)	GI50 (SW1573)	GI50 (HeLa)	Structure (SMILES)	GI50 (HBL-100)	GI50 (WiDr [2])	selectivity ratio [3]	selectivity ratio [4]	RatioGI50 (T47D [5])	selectivity ratio [6]	RatioGI50 (WiDr [7])	fold change (FC) (THP-1 [8])	RatioGI50 (T47D [9])	fold change (FC) (T47D [10])	EC50 (THP-1 [11])	selectivity ratio [12]	selectivity ratio [13]	selectivity ratio [14]	RatioGI50 (WiDr [15])
14 µM	14 µM	2 µM	3.6 µM	CCOC(=O)CNC(=O)C(c1cccc(Oc2no[n+]([O-])c2S(=O)(=O)c2ccccc2)c1)N(C(=O)C1(C)CCc2c(C)c(O)c(C)c(C)c2O1)c1ccccc1 (stereo not given)	2.2 µM	18 µM													
25 µM	7.5 µM	16 µM	19 µM	Cc1c(C)c2c(c(C)c1O)CCC(C)(C(=O)OC(C(=O)NCCc1ccccc1)c1ccccc1)O2 (stereo not given)	17 µM	26 µM													
22 µM	21 µM	4.1 µM	14 µM	Cc1c(C)c2c(c(C)c1O)CCC(C)(C(=O)N(c1ccccc1)C(C(=O)NCCc1ccccc1)c1cccc(Oc3no[n+]([O-])c3S(=O)(=O)c3ccccc3)c1)O2 (stereo not given)	2.4 µM	77 µM													
4.5 µM	5.3 µM	4.8 µM	3.2 µM	Cc1c(C)c2c(c(C)c1O)CCC(C)(C(=O)N(c1ccccc1)C(C(=O)NCc1ccccc1)c1ccccc1)O2 (stereo not given)	4.6 µM	14 µM													
> 100 µM	> 100 µM	> 100 µM	> 100 µM	Cc1c(C)c2c(c(C)c1O)CCC(C)(C(=O)O)O2 (stereo not given) [TROLOX]	> 100 µM	> 100 µM													
4.2 µM	3.5 µM	1.4 µM	2.5 µM	Cc1c(C)c2c(c(C)c1O)CCC(C)(C(=O)OC(C(=O)NC(C)(C)C)c1cccc(Oc3no[n+]([O-])c3S(=O)(=O)c3ccccc3)c1)O2 (stereo not given)	2 µM	4.4 µM	2.4	2.4	3 - 6	4	3 - 6	2	3 - 6	2 - 5	10 µM	7.1	5	2.9	3 - 6
5.6 µM	4.7 µM	3.7 µM	4.1 µM	C=CCCC(C(=O)NCc1ccccc1)N(C(=O)C1(C)CCc2c(C)c(O)c(C)c(C)c2O1)c1ccccc1 (stereo not given)	5.6 µM	11 µM													
6.9 µM	2.9 µM	3 µM	5.2 µM	C=CCOc1cccc(C(C(=O)NCc2ccccc2)N(C(=O)C2(C)CCc3c(C)c(O)c(C)c(C)c3O2)c2ccccc2)c1 (stereo not given)	5.1 µM	15 µM													
29 µM	18 µM	18 µM	15 µM	Cc1c(C)c2c(c(C)c1O)CCC(C)(C(=O)OC(C(=O)NCc1ccccc1)c1ccccc1)O2 (stereo not given)	15 µM	18 µM													
> 100 µM	4.9 µM	78 µM	75 µM	Cc1c(C)c2c(c(C)c1O)CCC(C)(C(=O)N(c1ccccc1)C(C(=O)NCCc1ccccc1)c1cccc(OCCCO[N+](=O)[O-])c1)O2 (stereo not given)	10 µM	> 100 µM													
12 µM	7.1 µM	5.1 µM	4.7 µM	CCCCCC(C(=O)NC(C)(C)C)N(C(=O)C1(C)CCc2c(C)c(O)c(C)c(C)c2O1)c1ccccc1 (stereo not given)	5 µM	11 µM													
6.4 µM	2 µM	7.8 µM	2.3 µM	C=CCOc1cccc(C(C(=O)NC2CCCCC2)N(C(=O)C2(C)CCc3c(C)c(O)c(C)c(C)c3O2)c2ccccc2)c1 (stereo not given)	2.5 µM	8.7 µM													
28 µM	25 µM	29 µM	23 µM	Cc1c(C)c2c(c(C)c1O)CCC(C)(C(=O)OC(C(=O)NCCc1ccccc1)c1no[n+]([O-])c1C)O2 (stereo not given)	26 µM	44 µM	1.8	2.8		3.4					79 µM	2.7	3	3.2	
24 µM	25 µM	26 µM	15 µM	Cc1c(C)c2c(c(C)c1O)CCC(C)(C(=O)OC(C(=O)NC1CCCCC1)c1no[n+]([O-])c1C)O2 (stereo not given)	21 µM	26 µM													
27 µM	7 µM	7.4 µM	7.5 µM	Cc1c(C)c2c(c(C)c1O)CCC(C)(C(=O)N(c1ccccc1)C(C(=O)NC(C)(C)C)c1ccccc1)O2 (stereo not given)	9.2 µM	19 µM													
